Measurements from patent publication US20100254951A1, “Nerve Regeneration Promoting Agent” (MOCHIDA PHARMACEUTICAL CO., LTD., priority 2005, published 2010).

Tests used:
[1] = test system: neural stem cells; test: Effect on proliferative activity of neural stem cells (BrdU incorporation); assay type: cell-based, rat; conditions: 10 μM BrdU, cultivation for 24 hours under differentiation induction; n=6; P=0.02 vs control
Procedure: In the same way as Experimental Example 1, neural stem cells were divided into DHA group and control (DHA free) group, and 10 μM 5-bromo-2′-droxyuridine (BrdU; Sigma) was added under culture conditions for differentiation induction, followed by cultivation for 24 hours. Thereafter, the cells were treated with 2N HCl at 37° C. for 10 minutes and treated with 0.1 M borate buffer (Na2B4O7, pH 8.5) for 5 minutes. The cell were treated with anti-mouse BrdU antibody (1:1000 Chemicon) and then treated with FITC-labeled secondary antibody.
7 random fields per well were sampled, and the numbers of BrdU-positive cells were counted to calculate a ratio of the number of BrdU-positive cells to the number of total cells. The number of total cells was counted by PI staining. Statistical analysis was evaluated by student's t-test.

[2] = test system: neural stem cells and cells differentiated from neural stem cells; test: Effect on apoptosis of neural stem cells and cells differentiated from neural stem cells (pycnotic cells by PI staining, TUNEL); assay type: cell-based, rat; conditions: cultivated under differentiation induction for 7 days; n=6; P=0.01 vs control
Procedure: In the same way as Experimental Example 1, neural stem cells were divided into DHA group and control (DHA free) group and cultivated under culture conditions for differentiation induction for 7 days, and pycnotic cells were evaluated by PI staining.
Apoptosis in the pycnotic cells were confirmed by TUNEL staining. The TUNEL staining was performed using Red In Situ Apoptosis Detection kit (Chemicon). Cells of the DHA group and the control group were cultivated for 7 days under the above-mentioned differentiation conditions and fixed with 4% paraformaldehyde, followed by incubation together with digoxigenin-dUTP in the presence of TdT at 37° C. for 1 hour. TUNEL-labeled cells were detected with Rhodamine conjugated anti-digoxigenin antibody and observed using confocal scanning laser microscopy.

[3] = test system: adult rat hippocampal dentate gyrus; test: Effect on neurogenesis in adult rat hippocampal dentate gyrus region (BrdU-NeuN double positive cells); assay type: in vivo; conditions: 300 mg/kg/day gavaged for 7 weeks
Procedure: 18-week-old Wister male rats fed with a fish oil-free diet for three generations were used. To DHA group, 4,7,10,13,16,19-docosahexaenoate suspended in a 5% gum arabic solution was gavaged at 300 mg/kg/day every day for 7 weeks. To control group, in the same way as above, only a 5% gum arabic solution was gavaged in the same dose. From 2 weeks after initiation of oral administration, BrdU dissolved in PBS (−) was injected to rats intraperitoneally once a day for 5 days (50 mg/kg).
4 weeks after completion of BrdU administration, PBS (−) was perfused from the hearts of the rats, followed by fixation with 4% paraformaldehyde. The brains were isolated and fixed with paraformaldehyde for further 24 hours, followed by exchange for 25% sucrose. Coronal sections (40 μm) were cut by a microtome, and nuclei labeled with BrdU were detected by the following procedures. […]
Six sections were selected at intervals of 240 μm from the rostro caudal region of a granular cell layer in the whole dentate gyrus, and BrdU-NeuN double positive cells in the granular cell layer and subgranular zone (inside zone along the granular cell layer) were counted. […] The referential volume of the granular cell layer was calculated from the areas of the sampled sections.

CC/C=C\C/C=C\C/C=C\C/C=C\C/C=C\C/C=C\CCC(=O)O [DHA, docosahexaenoic acid]
ratio of BrdU-positive cells to the number of total cells [1]: 16.3±1.0%
ratio of the pycnotic cells to the number of total cells [2]: 54.3±3.7%
number of BrdU-NeuN double positive cells in the whole granular cell layer of the dentate gyrus compared to the control group ([3]; 18-week-old Wister male rats): 1.6 fold
average number of the BrdU-NeuN double positive cells in the respective sections ([3]; n=3, P=0.005 vs control): 878±72.3 cells
